In ChEMBL document CHEMBL1201862, “PubChem BioAssay data set” (2004):
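Assay format: 96-well plates, 48-hour exposure. At the GI50, growth is halved.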 Activity calls are given as the source filed them. Cut-off read from the data, not from the text of the source: active = GI50 up to about 1.1 µM and inactive = higher.

How the values were obtained:
Test in all cases: NCI-60 cell line screen, 48 h
K562 = tested on: K562
U-251 = tested on: U-251
SK-OV-3 = tested on: SK-OV-3
M14 = tested on: M14
SW-620 = tested on: SW-620
UO-31 = tested on: UO-31
786-0 = tested on: 786-0
HT-29 = tested on: HT-29
NCI-H460 = tested on: NCI-H460
KM12 = tested on: KM12
OVCAR-5 = tested on: OVCAR-5
A498 = tested on: A498
TK-10 = tested on: TK-10
UACC-257 = tested on: UACC-257
HCC 2998 = tested on: HCC 2998
Hs-578T = tested on: Hs-578T
SNB-75 = tested on: SNB-75
RXF 393 = tested on: RXF 393
NCI-H522 = tested on: NCI-H522
BT-549 = tested on: BT-549

Measured: GI50

Cc1ccc([S@+]([O-])c2occc2C=O)cc1
inactive: K562 1.85 µM | U-251 12.9 µM | SK-OV-3 13.6 µM | M14 6.9 µM | SW-620 1.93 µM | UO-31 11.1 µM | 786-0 3.95 µM | HT-29 7.38 µM | NCI-H460 9.91 µM | KM12 17.2 µM | OVCAR-5 19.2 µM | A498 17.1 µM | TK-10 14.3 µM | UACC-257 12.4 µM | HCC 2998 14.5 µM | Hs-578T 16.4 µM | SNB-75 12.1 µM | RXF 393 13.3 µM | NCI-H522 15.4 µM | BT-549 12 µM

C=C(CC)C[C@@H]1C[C@]2(C(=O)OC)c3[nH]c4ccccc4c3CCN2C1=O
inactive: K562 18.9 µM | U-251 21.1 µM | SK-OV-3 21 µM | M14 15.6 µM | SW-620 16.4 µM | UO-31 17.9 µM | 786-0 16 µM | HT-29 19.5 µM | NCI-H460 21.1 µM | KM12 24.4 µM | OVCAR-5 21 µM | A498 17.6 µM | TK-10 35.3 µM | UACC-257 19.2 µM | HCC 2998 18.4 µM | Hs-578T 14.2 µM | SNB-75 21.3 µM | RXF 393 12.2 µM | NCI-H522 14.6 µM | BT-549 22 µM

C=C1C(=O)OC2CC(C)C(C(CC(C)=O)OC(C)=O)=CCC12 (stereo not given)
inactive: K562 3.24 µM | U-251 15.8 µM | SK-OV-3 37.9 µM | M14 11 µM | SW-620 3.03 µM | UO-31 16.2 µM | 786-0 2.74 µM | HT-29 8.41 µM | NCI-H460 17 µM | KM12 18.6 µM | OVCAR-5 17.6 µM | A498 18.7 µM | TK-10 17.3 µM | UACC-257 16.5 µM | HCC 2998 10.5 µM | Hs-578T > 100 µM | SNB-75 23.1 µM | RXF 393 15.9 µM | NCI-H522 1.73 µM | BT-549 6.19 µM

CCOC(=O)c1cn2c(n1)sc1cc(F)ccc12
inactive: K562 > 100 µM | U-251 77.6 µM | SK-OV-3 > 100 µM | M14 64.4 µM | SW-620 > 100 µM | UO-31 > 100 µM | 786-0 52.8 µM | HT-29 82.8 µM | NCI-H460 > 100 µM | KM12 62.8 µM | OVCAR-5 25.2 µM | A498 30.8 µM | TK-10 > 100 µM | UACC-257 > 100 µM | HCC 2998 > 100 µM | Hs-578T 64.3 µM | SNB-75 58.5 µM | RXF 393 85.1 µM | NCI-H522 > 100 µM | BT-549 77.6 µM

COc1ccc(NS(=O)(=O)c2ccc3ncn(NS(=O)(=O)c4ccc(I)cc4)c(=O)c3c2)cc1
inactive: K562 7.26 µM | U-251 > 100 µM | SK-OV-3 > 100 µM | M14 > 100 µM | SW-620 > 100 µM | UO-31 43.3 µM | 786-0 > 100 µM | HT-29 > 100 µM | NCI-H460 > 100 µM | KM12 8.89 µM | OVCAR-5 > 100 µM | A498 > 100 µM | TK-10 > 100 µM | UACC-257 > 100 µM | HCC 2998 > 100 µM | Hs-578T > 100 µM | SNB-75 > 100 µM | RXF 393 > 100 µM | NCI-H522 > 100 µM | BT-549 > 10 µM

CCC(CO)Nc1nc(NCc2ccccc2)c2ncn(C(C)C)c2n1 (stereo not drawn) [(RS)-ROSCOVITINE]
inactive: K562 46.6 µM | U-251 27.9 µM | SK-OV-3 57.8 µM | M14 16.8 µM | SW-620 25.2 µM | UO-31 12.4 µM | 786-0 20.2 µM | HT-29 18.8 µM | NCI-H460 16.2 µM | KM12 12.7 µM | OVCAR-5 20.7 µM | A498 23.9 µM | TK-10 24.4 µM | UACC-257 30.3 µM | HCC 2998 15.3 µM | Hs-578T 4.58 µM | SNB-75 13.8 µM | RXF 393 7.66 µM | NCI-H522 16.5 µM | BT-549 18.5 µM
